Test results taken from patent US20160250285A1, “NEUROPROTECTIVE PEPTIDES” (priority 2013, published 2016).
“Also recorded” adds a separate entry of the source. Read-outs that look alike come from different tables or passages of the source.

Experiments:
[1] = system: primary cortical neuronal cultures; settings: for neuroprotection, peptide present during the 5 minute glutamic acid insult only: FIG. 28; for neuroprotection, 10 minute pre-exposure removed immediately prior to insult: FIG. 29, FIG. 14
[2] = system: neuroblastoma cell line (SH-SY5Y); experiment: In vitro ischemia model, SH-SY5Y cells; assay type: cell-based; settings: 5 μM during/2.5 μM post (FIG. 3c)
Description: A brain endothelial cell line (bEND3) and a neuroblastoma cell line (SH-SY5Y) were also used for some experiments. bEND3 and SH-SY5Y cells were cultured using standard techniques in DMEM plus 5 or 15% foetal calf serum. Rat primary astrocytes were obtained and cultured as described for cortical neurons except DMEM plus 10% foetal calf serum was used instead of Neurobasal/2% B27, and the mitotic inhibitor, cytosine arabinofuraNOside was not used.
The in vitro ischemia model was also used for bEND3 cells, SH-SY5Y cells, and astrocytes. For bEND3 cells anaerobic incubation was extended to 2-3 hours and upon removal from the anaerobic incubator, 60 μl of DMEM/2% FCS was added to wells. […]
Twenty-four hours after insult, neuronal cultures were examined by light microscopy for qualitative assessment of neuronal cell viability. Neuronal viability was quantitatively measured by 3-(4,5,dimethyliazol-2-yl)-5-(3-carboxymethoxy-phenyl)-2-(4-sulfophenyl)-2H-tetrazolium salt (MTS) assay (Promega, Australia). The MTS assay measures the cellular conversion of the tetrazolium salt to a water-soluble brown formazan salt, which is detected spectrophotometrically at 490 nm. MTS absorbance data were converted to reflect proportional cell viability relative to both the untreated and treated controls, with the untreated control taken as 100% viability, and presented as mean±SEM. […]

[3] = system: brain endothelial cells (bEND3 cells); experiment: In vitro ischemia/OGD model, bEND3 cells; assay type: cell-based; settings: peptide during/after ischemia (FIG. 3c) or 15 min before OGD (FIGS. 23, 24)
Description: The in vitro ischemia model was also used for bEND3 cells, SH-SY5Y cells, and astrocytes. For bEND3 cells anaerobic incubation was extended to 2-3 hours and upon removal from the anaerobic incubator, 60 μl of DMEM/2% FCS was added to wells. […] Upon removal from the anaerobic incubator, 60 μl of DMEM/2% FCS was added to wells.
Twenty-four hours after insult, neuronal cultures were examined by light microscopy for qualitative assessment of neuronal cell viability. Neuronal viability was quantitatively measured by 3-(4,5,dimethyliazol-2-yl)-5-(3-carboxymethoxy-phenyl)-2-(4-sulfophenyl)-2H-tetrazolium salt (MTS) assay (Promega, Australia). The MTS assay measures the cellular conversion of the tetrazolium salt to a water-soluble brown formazan salt, which is detected spectrophotometrically at 490 nm. MTS absorbance data were converted to reflect proportional cell viability relative to both the untreated and treated controls, with the untreated control taken as 100% viability, and presented as mean±SEM. For studies using astrocytes, bEND3, and SH-Y5Y cells, raw MTS data was used to generate graphs. Viability data was analysed by ANOVA, followed by post-hoc Fischer's PLSD test, with P<0.05 values considered statistically significant. Four- to six wells were used in all assays.

fold more potent than TAT-D, based on IC50 values ([1]; glutamic acid model) [fold]	IC50 ([1]; read-out: IC50: Glutamic acid model, Table 4, polyarginine peptides, from dose response graph FIG. 1e) [µM]	Compound	IC50 [1] [µM]	neuroprotective efficacy at the higher concentration ([1]; 5 μM, dose response study)	neuroprotection, peptide present during the 5 minute glutamic acid insult only [1]	neuroprotection, 10 minute pre-exposure removed immediately prior to insult [1]	neuroprotection (neuronal viability) ([1]; peptide 15 min prior to and during glutamic acid exposure, viability 24 h, MTS)	protection of SH-SY5Y cells (cell death after in vitro ischemia) [2]	neuroprotection when added 15 minutes post-insult ([1]; 15 min post-glutamic acid (FIG. 1d))	MTS absorbance levels relative to baseline ([1]; normal neurons and following injury)	IC50 ([1]; read-out: IC50: Glutamic acid model, Table 3, from dose response graph FIG. 1a, peptide 15 min prior to and during 100 μM glutamic acid (5 min), viability 24 h, MTS) [µM]	protection of bEND3 cells (cell death / viability after in vitro ischemia/OGD) [3]
		H-RRRRRRRRRRRRRRRRRR-OH [Peptide R18]	0.24	reduced	effective	effective	showed significant neuroprotection					
17	0.83	N=C(N)NCCC[C@H](NC(=O)[C@H](CCCNC(=N)N)NC(=O)[C@H](CCCNC(=N)N)NC(=O)[C@H](CCCNC(=N)N)NC(=O)[C@H](CCCNC(=N)N)NC(=O)[C@H](CCCNC(=N)N)NC(=O)[C@H](CCCNC(=N)N)NC(=O)[C@H](CCCNC(=N)N)NC(=O)[C@@H](N)CCCNC(=N)N)C(=O)O [Peptide R9]			effective	effective		reduced; also recorded: able to protect	mildly effective	increase MTS absorbance levels above baseline levels	0.78	reduced; also recorded: able to protect
